Experimental findings from patent US10945978B2, “Treatment and diagnosis of melanoma” (The Rockefeller University, priority 2012, dated 2021) are described below.

Test [1] relates to HUVEC's. Nature of the test: Endothelial migration and chemotaxis assays (cancer cell-free). The arrangement: species or system human. As to conditions: trans-well assay and gradient-based chemotactic assay. As for the experimental part: Serum-starved HUVEC's were pulsed with Cell Tracker Red CMTPX dye for 45 minutes and seeded into HTS Fluoroblock trans-well inserts at a concentration of 1×10^5 HUVEC's in 0.5 mL starvation media per each insert. The assay was allowed to proceed for 16-18 hours at 37° C., and the inserts were processed and analyzed as described above (See Matrigel Invasion Assay).
HUVEC's were serum-starved in 0.2% FBS EGM-2 media for 16 hours and labeled with Cell Tracker Red CMTPX dye for 45 minutes. Meanwhile, the indicated amounts (1-5 jag) of recombinant human ApoE3 or BSA were mixed with 250 μL of matrigel (356231, BD Biosciences) and allowed to solidify at the bottom of a 24-well plate for 30 min. 250 μL of HUVEC EGM-2 media containing 0.2% FBS was then added to each matrigel-coated well, and […] HTS Fluoroblock inserts were fitted into each well. 1×10^5 HUVEC's, resuspended in 0.5 mL of starvation media, were seeded into each insert and allowed to migrate along the matrigel gradient for 16-18 hours at 37° C. Upon completion of the assay, the inserts were mounted on slides and analyzed as described above (See Matrigel Invasion Assay).

For test [2], the system named is VEGF-induced endothelial recruitment. Nature of the test: In vivo matrigel plug assay. As to conditions: VEGF 400 ng/mL + recombinant ApoE3 10 μg/mL. The arrangement: species or system mouse. As for the experimental part: 10 μg/mL recombinant human ApoE3 (4696, BioVision), 10 μg/mL BSA (A2153, Sigma Aldrich), or 400 ng/ml VEGF were mixed with matrigel (356231, BD Biosciences) as indicated. 400 μL of matrigel containing the indicated recombinant proteins were injected subcutaneously just above the ventral flank of immunocompromised NOD-SCID mice. Plugs were extracted on day 3 post-injection and fixed in 4% paraformaldehyde for 48 hours. Plugs were then paraffin-embedded and sectioned at 5-μm-thick increments. Plug cross-sectional sections were immunohistochemically stained using a primary antibody against the mouse endothelial antigen MECA-32 (Developmental Studies Hybridoma Bank, The University of Iowa, IA), detected by peroxidase-conjugated secondary antibody, and subsequently visualized by DAB oxidization. To quantify the extent of endothelial cell invasion into each matrigel plug, the number of endothelial cells was counted in 4-5 random fields for each plug, and the average number of endothelial cells per given plug area was calculated.

Test [3] relates to MeWo-LM2 cells. Nature of the test: Lung metastatic colonization by MeWo-LM2 cells in NOD-SCID mice. Type of test: in vivo, human. As to conditions: cells pre-incubated with recombinant ApoE 100 μg/mL for 24 hours before i.v. injection. On the procedure: After 8 hours, the transfection media was replaced with fresh media. After 48 hours, 1×10^5 cells were injected intravenously into NOD-SCID mice to assess lung metastatic colonization or through intracardiac injection into athymic nude mice to assess systemic metastasis. For cell invasion and endothelial recruitment in vitro assays, the cells were used 96 hours post-transfection.

The subject of test [4] is breast cancer, renal cell cancer, and pancreatic cancer cell lines. Nature of the test: Matrigel invasion of breast, renal cell and pancreatic cancer cell lines with recombinant ApoE. As to conditions: recombinant ApoE3 100 μg/mL vs BSA. It counts as cell-based, human. As for the experimental part:
The ability of cancer cells to invade through matrigel in vitro was tested by using a trans-well matrigel invasion chamber system (354480, BD Biosciences). Various cancer cell lines were serum-starved overnight in media containing 0.2% FBS. The following day, invasion chambers were pre-equilibrated prior to the assay by adding 0.5 mL of starvation media to the top and bottom wells. Meanwhile, cancer cells were trypsinized and viable cells were counted using the trypan blue dead cell exclusion dye. Cancer cells were then resuspended at a concentration of 1×10^5 cells/1 mL starvation media, and 0.5 mL of cell suspension, containing 5×10^4 cells, was seeded into each trans-well. To determine the effect of recombinant ApoE on cancer cell invasion, human recombinant ApoE3 (4696, Biovision) or BSA were added to each trans-well at 100 μg/mL at the start of the assay. The invasion assay was allowed to proceed for 24 hours at 37° C. […] Following fixation, the inserts were washed in PBS and then cut out and mounted onto slides using VectaShield mounting medium containing DAPI nuclear stain (H-1000, Vector Laboratories). The basal side of each insert was imaged using an inverted fluorescence microscope (Zeiss Axiovert 40 CFL) at 5× magnification, and the number of DAPI-positive cells was quantified using ImageJ.

The subject of test [5] is DNAJA4. Nature of the test: DNAJA4 expression by qRT-PCR in parental MeWo cells. Type of test: cell-based, human. As to conditions: GW3965 48 hours. On the procedure: Total RNA was extracted from various cell lines using the miRvana kit (AM1560, Applied Biosystems, Austin, Tex.). The expression levels of mature miRNAs were quantified using the Taqman miRNA expression assay (4427975-0002228, Applied Biosystems). RNU44 was used as an endogenous control for normalization. For mRNA expression analyses, 600 ng of total RNA was reverse transcribed using the cDNA First-Strand Synthesis Kit (18080-051, Invitrogen), and roughly 200 ng of the resulting cDNA was then mixed with SYBR green PCR Master Mix (4309155, Applied Biosystems) and the appropriate primers. Each reaction was performed in quadruplicate, and mRNA expression was quantified by performing real-time PCR amplification using an ABI Prism 7900HT Real-Time PCR System (Applied Biosystems). GAPDH was used as an endogenous control for normalization. The following primers were used: […]

The subject of test [6] is SK-Mel-2 human melanoma cells. Nature of the test: Subcutaneous SK-Mel-2 tumor growth in immunocompromised mice. Type of test: in vivo. As to conditions: oral, GW3965-supplemented diet.
Test [7] deals with HT-144 melanoma line, SK-Mel-334.2 primary melanoma line. Nature of the test: Lung metastatic colonization by HT-144 and SK-Mel-334.2 cells in NOD scid mice. It counts as in vivo, human. On the procedure:
Melanoma cells used for in vivo metastasis assays were transduced with a stably expressed retroviral construct encoding a luciferase reporter gene (Ponomarev et al., 2004), allowing us to monitor the in vivo progression of melanoma cells by bioluminescence imaging. The following numbers of melanoma cells, resuspended in 100 μL of PBS, were injected intravenously via the tail-vein: 4×10^4 MeWo cells, 2.5×10^5 HT-144 cells, 2×10^5 SK-Mel-334.2 cells, 5×10^4B16F10 cells, and 1×10^5 YUMM cells. The MeWo, HT-144, and SK-Mel-334.2 cells were injected into 6-8 week-old sex-matched NOD scid mice, while the B16F10 and YUMM cells were injected into 6-8 week-old sex-matched C57BL/6 mice. In all experiments assessing at the effects of GW3965 on metastasis formation, mice were pre-treated on a control diet or a GW3965-supplemented diet (20 mg/kg) for 10 days. To assess the effect of GW3965 treatment on brain metastasis, 1×10^5 MeWo brain-metastatic derivatives were injected intracardially into athymic nude mice. Immediately following injection, mice were randomly assigned to a control diet or GW3965-supplemented diet (100 mg/kg). […]

Counter-ions that a name gives are not always drawn.

With “recombinant human ApoE: recombinant human ApoE3 (4696, BioVision)”, the endothelial migration result in test [1] was “sufficient to inhibit”. The “suppression of VEGF-induced endothelial recruitment into subcutaneous matrigel plugs” value in test [2] is “greater than 40 fold”. In test [3], the “suppression of metastatic colonization” value is given as “over 300 fold”. The tumor cell invasion entry in test [4] is listed as “inhibited”.

`O=C(O)Cc1cccc(OCCCN(Cc2cccc(C(F)(F)F)c2Cl)CC(c2ccccc2)c2ccccc2)c1` [GW3965 2, 3-[3-[N-(2-Chloro-3-trifluoromethylbenzyl)-(2,2-diphenylethyl)amino]propyloxy] phenylacetic acid hydrochloride]: in test [5], the “expression of DNAJA4” value is given as “increased”. Besides, in test [6], the tumor growth inhibition is on record as 49%. The metastatic colonization entry in test [7] (HT-144 melanoma line) and in test [7] (SK-Mel-334.2 primary melanoma line) was “suppressed” throughout.
